In patent US6123916A, “Therapeutic use of somatostatin peptides” (priority 1990, dated 2000):

System: GH-release (serum GH-level)
Experiment: Depression of serum GH-levels in male rats 1 hour after s.c. administration (radio-immuno-assay)
Format: in vivo, rat
Settings: blood taken 1 hour after administration
Protocol: This test is carried out employing male rats. The test-substance is administered at varying, logarithmically staggered doses employing at least 5 rats per dose. 1 hour after s.c. administration of the test substance blood is taken. The determination of the blood serum GH-level is effected by radio-immuno-assay.

C[C@H](N)C(=O)NCC(=O)N[C@H]1CSSC[C@@H](C(=O)O)NC(=O)[C@H](CO)NC(=O)[C@H]([C@@H](C)O)NC(=O)[C@H](Cc2ccccc2)NC(=O)[C@H]([C@@H](C)O)NC(=O)[C@H](CCCCN)NC(=O)[C@H](Cc2c[nH]c3ccccc23)NC(=O)[C@H](Cc2ccccc2)NC(=O)[C@H](Cc2ccccc2)NC(=O)[C@H](CC(N)=O)NC(=O)[C@H](CCCCN)NC1=O [natural somatostatin, somatostatin]
ID50 (amount of compound required to lower the GH content by 50% compared with untreated control animals): 0.95 mg/kg
